Earlier results, collected in patent publication US20090304869A1, “Peptides Having an Ace Inhibiting Effect” (priority 2005, published 2009).

Legend:
[1] = in sour milk, hypertensive humans
ACE = ACE (Homo sapiens, UniProt P12821); conditions: peptides in fermented milk products
ACE, sequence (P12821 30-1306, species assumed): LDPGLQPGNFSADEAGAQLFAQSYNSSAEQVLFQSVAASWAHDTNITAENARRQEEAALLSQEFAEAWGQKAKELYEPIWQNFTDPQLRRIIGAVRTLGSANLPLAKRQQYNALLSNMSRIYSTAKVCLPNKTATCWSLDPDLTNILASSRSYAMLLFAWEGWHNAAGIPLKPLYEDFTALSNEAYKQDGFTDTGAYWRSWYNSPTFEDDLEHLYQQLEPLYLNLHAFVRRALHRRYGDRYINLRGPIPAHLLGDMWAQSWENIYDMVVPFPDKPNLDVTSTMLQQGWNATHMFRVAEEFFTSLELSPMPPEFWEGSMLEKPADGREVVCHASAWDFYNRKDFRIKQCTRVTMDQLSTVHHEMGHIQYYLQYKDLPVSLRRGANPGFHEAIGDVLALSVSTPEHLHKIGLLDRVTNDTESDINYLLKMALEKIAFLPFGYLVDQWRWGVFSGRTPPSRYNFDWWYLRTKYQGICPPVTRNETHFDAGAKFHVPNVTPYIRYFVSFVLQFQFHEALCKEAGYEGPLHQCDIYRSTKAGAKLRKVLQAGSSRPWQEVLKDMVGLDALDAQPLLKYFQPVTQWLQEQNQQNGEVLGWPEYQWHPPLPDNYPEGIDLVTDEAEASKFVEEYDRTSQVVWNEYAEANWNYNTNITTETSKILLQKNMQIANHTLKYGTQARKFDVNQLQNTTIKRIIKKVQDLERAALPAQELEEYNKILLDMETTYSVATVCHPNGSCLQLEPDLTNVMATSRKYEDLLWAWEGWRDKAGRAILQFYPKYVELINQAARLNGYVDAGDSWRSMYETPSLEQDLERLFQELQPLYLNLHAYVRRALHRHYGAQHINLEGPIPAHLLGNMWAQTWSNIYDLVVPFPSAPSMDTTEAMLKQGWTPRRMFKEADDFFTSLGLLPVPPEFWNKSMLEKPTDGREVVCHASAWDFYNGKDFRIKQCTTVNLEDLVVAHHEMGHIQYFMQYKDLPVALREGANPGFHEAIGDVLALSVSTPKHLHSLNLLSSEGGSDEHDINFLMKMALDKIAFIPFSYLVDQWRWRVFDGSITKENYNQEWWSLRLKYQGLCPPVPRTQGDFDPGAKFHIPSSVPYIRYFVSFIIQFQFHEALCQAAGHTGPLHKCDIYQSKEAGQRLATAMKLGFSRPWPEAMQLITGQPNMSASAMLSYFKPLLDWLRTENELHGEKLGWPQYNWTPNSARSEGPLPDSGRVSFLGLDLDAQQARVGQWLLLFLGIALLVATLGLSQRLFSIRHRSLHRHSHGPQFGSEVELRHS

in vitro ACE inhibition (ACE): showed in vitro ACE inhibition
Structure (SMILES): CC[C@H](C)[C@H](N)C(=O)N1CCC[C@H]1C(=O)N1CCC[C@H]1C(=O)O [IPP]
blood pressure lowering effect [1]: blood pressure lowering effect
